From patent publication US8828992B2, “Substituted azole derivatives, pharmaceutical composition containing the derivatives, and method for treating Parkinson's disease using the same” (priority 2009, dated 2014)

The molecules below were run against T1, Monoamineoxidase B type human-derived enzyme (Homo sapiens, UniProt P27338) (assay: Inhibitory effects on the activity of MAO-B (Amplex Red fluorescence, benzylamine substrate)). Settings: read-out: Inhibitory effects (%) on the activity of MAO-B.
T1 sequence (P27338 1-520): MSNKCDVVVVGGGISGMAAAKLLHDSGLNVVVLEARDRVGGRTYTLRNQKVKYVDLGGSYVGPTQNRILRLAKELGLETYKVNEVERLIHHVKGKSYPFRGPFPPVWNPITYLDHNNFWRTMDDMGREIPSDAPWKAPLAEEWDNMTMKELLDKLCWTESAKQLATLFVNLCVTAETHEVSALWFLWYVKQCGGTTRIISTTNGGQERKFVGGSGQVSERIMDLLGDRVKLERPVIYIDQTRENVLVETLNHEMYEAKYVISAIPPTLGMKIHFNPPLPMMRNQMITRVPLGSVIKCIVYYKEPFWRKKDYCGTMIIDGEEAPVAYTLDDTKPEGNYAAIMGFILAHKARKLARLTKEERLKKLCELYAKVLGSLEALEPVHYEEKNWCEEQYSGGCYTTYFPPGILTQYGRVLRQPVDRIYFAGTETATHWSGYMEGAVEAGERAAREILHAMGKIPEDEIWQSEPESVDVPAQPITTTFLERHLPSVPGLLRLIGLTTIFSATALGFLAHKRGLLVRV
Format: biochemical
Protocol: Monoamineoxidase A or B type human-derived enzyme (5 mg/ml) was each diluted with 0.05 M sodium phosphate buffer (pH 7.4) to yield a dilution of 1:200, and then 100 μl of an enzyme buffer containing 2 μl of a compound 1 solution at the corresponding concentration was placed in a test plate (flat-bottom) and incubated for 30 minutes.
100 μl of a working buffer containing 400 μM of Amplex Red reagent, 2 U/ml horseradish peroxidase, and 2 mM substrate (tyramine for MAO-A and benzylamine for MAO-B) in 0.05 M sodium phosphate buffer (pH 7.4) was mixed with a pre-incubated enzyme buffer at 1:1 and measured using fluorescence (EX: 563 nm & EM: 587 nm) for 30 minutes.
Molecule `NC(=O)OCCCOc1ccc(-c2cc(COC(N)=O)on2)cc1` [Example 52, carbamic acid 3-[4-(5-carbamoyloxymethyl-isoxazol-3-yl)-phenoxy]-propyl ester] has an inhibition at 0.01 µM of 26.6%. In the case of `CCCOc1ccc(-c2cc(COC(N)=O)on2)cc1` [Example 42, carbamic acid 3-(4-propoxy-phenyl)-isoxazol-5-ylmethyl ester], the inhibition at 0.01 µM is reported as 85.3%. In the case of `NC(=O)OCc1cc(-c2ccc(OCCCC(F)(F)F)cc2)no1` [Example 59, carbamic acid 3-[4-(4,4,4-trifluoro-butoxy)-phenyl]-isoxazol-5-ylmethyl ester], the inhibition at 0.01 µM is reported as 97.4%.

Same assay, conditions: treatment concentration 10 nM
“3-[4-(3-chloro-benzyloxy)-phenyl]-isoxazol-5-ylmethyl ester [Example 20]” was tested, and the “Inhibitory effects (%) on the activity of MAO-B” value was 96.2%.

Same assay, conditions: treatment concentration 10 nM; read-out: Inhibitory effects (%) on the activity of MAO-B
In the case of `NC(=O)OCc1cc(-c2ccc(NCc3cccc(F)c3F)cc2)no1` [Example 80, Carbamic acid 3-[4-(2,3-difluoro-benzylamino)-phenyl]-isoxazol-5-ylmethyl ester], the inhibition at 0.01 µM is reported as 74.5%. In the case of `NC(=O)OCc1cc(-c2ccc(OCc3ccccc3)c(Cl)c2)no1` [Example 7, carbamic acid 3-(4-benzyloxy-3-chloro-phenyl)-isoxazol-5-ylmethyl ester], the inhibition at 0.01 µM is reported as 75.9%. In the case of `O=C(OCc1cc(-c2ccc(OCc3ccccc3)cc2)no1)N1CCCC1` [Example 125, pyrrolidine-1-carboxylic acid 3-(4-benzyloxy-phenyl)-isoxazol-5-ylmethyl ester], the inhibition at 0.01 µM is reported as 65.8%. Molecule `NC(=O)OCc1cc(-c2ccc(NCc3cc(Cl)ccc3Cl)cc2)no1` [Example 90, carbamic acid 3-[4-(2,5-dichloro-benzylamino)-phenyl]-isoxazol-5-ylmethyl ester] has an inhibition at 0.01 µM of 20.3%. Molecule `NC(=O)OCc1cc(-c2ccc(NCc3ccc(Cl)cc3)cc2)no1` [Example 85, Carbamic acid 3-[4-(4-chloro-benzylamino)-phenyl]-isoxazol-5-ylmethyl ester] has an inhibition at 0.01 µM of 50.1%. `C#CCNCc1cc(-c2ccc(OCc3ccccc3)cc2)no1` [Example 119, [3-(4-benzyloxy-phenyl)-isoxazol-5-ylmethyl]-prop-2-ynyl-amine] showed an inhibition at 0.01 µM of 81.7%. Molecule `NC(=O)OCc1cc(-c2ccc(OCc3ccccc3C(F)(F)F)cc2)no1` [Example 201, carbamic acid 3-[4-(2-trifluoromethyl-benzyloxy)-phenyl]-isoxazol-5-ylmethyl ester] has an inhibition at 0.01 µM of 72.4%. In the case of `c1ccc(COc2ccc(-c3cc(Cn4ccnn4)on3)cc2)cc1` [Example 145, 1-[3-(4-benzyloxy-phenyl)-isoxazol-5-ylmethyl]-1H-[1,2,3]triazole], the inhibition at 0.01 µM is reported as 39.2%. Molecule `NC(=O)OCc1cc(-c2ccc(OCc3cc(F)cc(F)c3)cc2)no1` [Example 16, carbamic acid 3-[4-(3,5-difluoro-benzyloxy)-phenyl]-isoxazol-5-ylmethyl ester] has an inhibition at 0.01 µM of 96.5%. `O=C(OCc1cc(-c2ccc(OCc3ccccc3)cc2)no1)N1CCCCC1` [Example 126, piperidine-1-carboxylic acid 3-(4-benzyloxy-phenyl)-isoxazol-5-ylmethyl ester] gave an inhibition at 0.01 µM of 48.7%. In the case of `NC(=O)OCc1cc(-c2ccc(NCc3ccc(F)cc3)cc2)no1` [Example 76, Carbamic acid 3-[4-(4-fluoro-benzylamino)-phenyl]-isoxazol-5-ylmethyl ester], the inhibition at 0.01 µM is reported as 87%. For `NC(=O)OCCNCc1cc(-c2ccc(OCc3ccccc3)cc2)no1` [Example 177, Carbamic acid 2-{[3-(4-benzyloxy-phenyl)-isoxazol-5-ylmethyl]-amino}-ethyl ester], the inhibition at 0.01 µM was 31.7%. In the case of `NC(=O)OCc1cc(-c2ccc(OCc3ccc4ccccc4n3)cc2)no1` [Example 70, Carbamic acid 3-[4-(quinolin-2-ylmethoxy)-phenyl]-isoxazol-5-ylmethyl ester], the inhibition at 0.01 µM is reported as 27.1%. `Fc1ccc(COc2ccc(-c3cc(Cn4ccnc4)on3)cc2)cc1` [Example 156, 3-[4-(4-fluoro-benzyloxy)-phenyl]-5-imidazol-1-ylmethyl-isoxazole] showed an inhibition at 0.01 µM of 74.5%. For `NC(=O)OCc1cc(-c2ccc(OCc3ccccc3)cc2Cl)no1` [Example 5, carbamic acid 3-(4-benzyloxy-2-chloro-phenyl)-isoxazol-5-ylmethyl ester], the inhibition at 0.01 µM was 88.3%. `NC(=O)OCc1cc(-c2ccc(NCc3cc(F)cc(F)c3)cc2)no1` [Example 82, Carbamic acid 3-[4-(3,5-difluoro-benzylamino)-phenyl]-isoxazol-5-ylmethyl ester] showed an inhibition at 0.01 µM of 56.5%. In the case of `NC(=O)OCc1cc(-c2ccc(OCc3cccc([N+](=O)[O-])c3)cc2)no1` [Example 26, carbamic acid 3-[4-(3-nitro-benzyloxy)-phenyl]-isoxazol-5-ylmethyl ester], the inhibition at 0.01 µM is reported as 87.3%. Work on `NC(=O)OCc1cc(-c2ccc(OCc3cc(F)ccc3Cl)cc2)no1` [Example 25, carbamic acid 3-[4-(2-chloro-5-fluoro-benzyloxy)-phenyl]-isoxazol-5-ylmethyl ester] yielded an inhibition at 0.01 µM of 83.2%. `NC(=O)OCc1cc(-c2ccc(OCc3ccccc3)c(F)c2)no1` [Example 8, carbamic acid 3-(4-benzyloxy-3-fluoro-phenyl)-isoxazol-5-ylmethyl ester] was tested, and the inhibition at 0.01 µM was 72.7%. `OC1CCN(Cc2cc(-c3ccc(OCc4ccccc4)cc3)no2)CC1` [Example 137, 1-[3-(4-benzyloxy-phenyl)-isoxazol-5-ylmethyl]-piperidin-4-ol] was tested, and the inhibition at 0.01 µM was 43.5%. `NC(=O)OCc1cc(-c2ccc(OCc3ccc(Cl)cc3)cc2)no1` [Example 22, carbamic acid 3-[4-(4-chloro-benzyloxy)-phenyl]-isoxazol-5-ylmethyl ester] gave an inhibition at 0.01 µM of 86%. `NC(=O)OCc1cc(-c2ccc(OCc3nc4ccccc4s3)cc2)no1` [Example 64, Carbamic acid 3-[4-(benzothiazol-2-ylmethoxy)-phenyl]-isoxazol-5-ylmethyl ester] gave an inhibition at 0.01 µM of 32.8%. `NC(=O)C(CO)NCc1cc(-c2ccc(OCc3ccccc3)cc2)no1` (stereo not drawn) [Example 167, 2-{[3-(4-benzyloxy-phenyl)-isoxazol-5-ylmethyl]-amino}-3-hydroxy-propionamide] gave an inhibition at 0.01 µM of 21.8%. `CC(C)c1ccc(COc2ccc(-c3cc(COC(N)=O)on3)cc2)cc1` [Example 32, Carbamic acid 3-[4-(4-isopropyl-benzyloxy)-phenyl]-isoxazol-5-ylmethyl ester] showed an inhibition at 0.01 µM of 84.4%. `Cc1ccc(CNc2ccc(-c3cc(COC(N)=O)on3)cc2)cc1` [Example 100, Carbamic acid 3-[4-(4-methyl-benzylamino)-phenyl]-isoxazol-5-ylmethyl ester] showed an inhibition at 0.01 µM of 23.7%. With `Fc1cc(F)c(COc2ccc(-c3cc(Cn4ccnc4)on3)cc2)c(F)c1` [Example 155, 5-imidazol-1-ylmethyl-3-[4-(2,4,6-trifluoro-benzyloxy)-phenyl]-isoxazole] the inhibition at 0.01 µM was 70.7%. For `Cc1noc(C)c1CNc1ccc(-c2cc(COC(N)=O)on2)cc1` [Example 112, carbamic acid 3-{4-[(3,5-dimethyl-isoxazol-4-ylmethyl)-amino]-phenyl}-isoxazol-5-ylmethyl ester], the inhibition at 0.01 µM was 26%. `NC(=O)OCc1cc(-c2ccc(NCc3cccc(F)c3)cc2)no1` [Example 77, Carbamic acid 3-[4-(3-fluoro-benzylamino)-phenyl]-isoxazol-5-ylmethyl ester] showed an inhibition at 0.01 µM of 77.1%. Work on `NC(=O)OCc1cc(-c2ccc(NCc3cccc(Cl)c3)cc2)no1` [Example 87, Carbamic acid 3-[4-(3-chloro-benzylamino)-phenyl]-isoxazol-5-ylmethyl ester] yielded an inhibition at 0.01 µM of 78.6%. Molecule `NC(=O)OCc1cc(-c2ccc(NCc3cc(Cl)cc(Cl)c3)cc2)no1` [Example 93, carbamic acid 3-[4-(3,5-dichloro-benzylamino)-phenyl]-isoxazol-5-ylmethyl ester] has an inhibition at 0.01 µM of 24.1%. `NC(=O)OCCc1cc(-c2ccc(OCc3ccccc3)cc2)no1` [Example 118, carbamic acid 2-[3-(4-benzyloxy-phenyl)-isoxazol-5-yl]-ethyl ester] gave an inhibition at 0.01 µM of 25.7%. For `COc1cccc(CNc2ccc(-c3cc(COC(N)=O)on3)cc2)c1` [Example 105, Carbamic acid 3-[4-(3-methoxy-benzylamino)-phenyl]-isoxazol-5-ylmethyl ester], the inhibition at 0.01 µM was 53.7%. `Cc1ccccc1COc1ccc(-c2cc(COC(N)=O)on2)cc1` [Example 29, carbamic acid 3-[4-(2-methyl-benzyloxy)-phenyl]-isoxazol-5-ylmethyl ester] gave an inhibition at 0.01 µM of 80.3%. Molecule `CCN(CC)Cc1cc(-c2ccc(OCc3ccccc3)cc2)no1` [Example 151, [3-(4-benzyloxy-phenyl)-isoxazol-5-ylmethyl]-diethyl-amine] has an inhibition at 0.01 µM of 96.8%.

Same assay, conditions: treatment concentration 100 nM
`NC(=O)OCc1cc(-c2ccc(OCc3ccc(Cl)cc3Cl)cc2)no1` [Example 198, carbamic acid 3-[4-(2,4-dichlorobenzyloxy)-phenyl]-isoxazol-5-ylmethyl ester] gave an inhibition at 0.1 µM of 95.7%.
